Assay results as given in patent publication US20250109127A1, “METHODS OF USE OF PHENOXYPROPYLAMINE COMPOUNDS TO TREAT DEPRESSION” (Minerva Neurosciences, Inc., priority 2013, published 2025).
Values joined by “and” are separate entries in the source; they are usually repeats but may differ in a detail not shown here. Equal entries are not always repeated. Structures can show the parent of a compound that is named as a salt.

System: 5-HT release in the rat prefrontal cortex
Experiment: Microdialysis: 5-HT release in prefrontal cortex after I.P. administration
Type: in vivo
Conditions: for 5-HT release (% of basal levels) measured in dialysates: individual animals, hydrochloride, 3 mg/kg; for 5-HT release (% of basal levels) measured in dialysates, MEAN / 5-HT (% of respective basal) MEAN: n = 8; for 5-HT (% of respective basal) MEAN: SON-117 group 0.1 mg/kg I.P.
Description: The aim of the study was to evaluate, using microdialysis, the effects of an intraperitoneal (I.P.) administration in rats of three different doses of SON-117 on dopamine and its metabolites, serotonin and its metabolite (5-HIAA), and norepinephrine levels in prefrontal cortex.
Thirty-two adult male Wistar rats were used for the whole study (4 groups of eight animals planned for the study, Table 1).
Surgery was performed on rats weighing about 300 g at the beginning of the experiments. Rats were anaesthetized with Ketamine (50 mg/kg) & Xylazine (15 mg/kg) by intramuscular administration. The animals were placed in a stereotaxic apparatus in the flat-skull position at a constant setting of −3.3 mm between ear bars and the incisor bar. The animals were treated with a local anesthesic (xylocaine 1%, Astra Zeneca) and an analgesic (Temgesic, from Schering Plough, 0.05 mg/kg, s.c.). A rostrocaudal midline incision was made with a lancet to expose the dorsal skull surface. The “stereotaxic zero” was defined by the Bregma in accordance with Paxinos and Watson's atlas (1986). A hole was drilled in the skull with a drill and the meninges were pierced with a sterile needle to implant a CMA12 guide cannula which later received the dialysis probe.
Coordinates used for implanting guide cannula in prefrontal cortex from Bregma were anteroposterior 3.7 mm, mediolateral 0.8 mm, and dorsoventral −2 mm (top of the probe was at −5 mm). The guide cannula was fixed to the skull with two stainless steel screws (1.88 mm outside diameter) anchored. An application of dental cement was added. A plastic collar allowed each animal to be tethered to a Swivel assembly of the CMA 120 awake animal system. Following surgery, rats were kept in individual cages and allowed to recover for a minimum of 3-5 days before the experimentation. The rats were handled and put in plastic bowl for 10 min at least every day to habituate the animals to their new environment for the dialysis. An I.P. administration with saline was also performed every day.
Dialysis probes (CMA12/3 mm, membrane, 20 kD cut-off, Carnegie Medicine, Stockholm, Sweden), were carefully washed before inserting into the guide cannula. The wash was performed with the artificial cerebrospinal fluid (aCSF) medium (NaCl 147 mM, KCl 2.7 mM, CaCl2 1.2 mM, MgCl2 0.85 mM) at room temperature. The dialysis system was then equilibrated at 20° C. at a perfusion rate of 1 μl/min with a Carnegie pump (CMA100). All catheters (FEP tubing, internal volume of 1.2 μl/10 cm, and tubing adaptors) used for microdialysis were treated in the same conditions.
The probes duly prepared were inserted into the guide cannula and the CMA120 Swivel assembly secured to the animal using a plastic collar. Flow through the dialysis probe with aCSF was maintained at a rate of 1 μl/min during the whole experimentation. The first four fractions (corresponding to 2 hours) were discarded to avoid the effects of parenchymal disturbance and to ensure that an approximate steady-state level was reached. Fractions were then collected over a period of 8.5 h during which time the animals remained quiet. The dialysates were automatically collected with an autosampler (microfraction collector CMA 140, Carnegie Medicin) and stored at −80° C. until analysis. […] Perfusion was then maintained for 7 hours with aCSF. The dialysates (30 μl) were collected into 300 μl vials, transferred into dry ice and then kept frozen (−80° C.) until analysis. Frozen samples were shipped to a partner for analysis. At the end of the microdialysis study, a PBS with colored ink was perfused through the probe in order to visualize the dialyzed area.
Catecholamine assay: Concentrations of dopamine, DOPAC, HVA, 5-HIAA, 5-HT, and norepinephrin were determined for each sample by HPLC coupled with electrochemical detection. […]

[1] = SON-117 3 mg/kg IP, T1 h 30-T2 h
[2] = SON-117 3 mg/kg IP, T1 h-T1 h 30
[3] = SON-117 3 mg/kg IP, T2 h 30-T3 h
[4] = SON-117 3 mg/kg IP, T2 h-T2 h 30
[5] = SON-117 3 mg/kg IP, T3 h 30-T4 h
[6] = SON-117 3 mg/kg IP, T3 h-T3 h 30
[7] = SON-117 3 mg/kg IP, T4 h 30-T5 h
[8] = SON-117 3 mg/kg IP, T4 h-T4 h 30
[9] = SON-117 3 mg/kg IP, T5 h 30-T6 h
[10] = SON-117 3 mg/kg IP, T5 h-T5 h 30
[11] = SON-117 3 mg/kg IP, T6 h 30-T7 h
[12] = SON-117 3 mg/kg IP, T6 h-T6 h 30
[13] = SON-117 3 mg/kg IP, T-1 h 30-T-1 h (pre-administration)

SMILES: Cc1nnc(-c2cc3c(OC[C@@H](O)CN4CCC(c5ccc(Cl)c(Cl)c5)CC4)cccc3o2)o1 [SON-117, (S)-1-(4-(3,4-dichlorophenyl)piperidino)-3-(2-(5-methyl-1,3,4-oxadiazol-2-yl)benzo(b)furan-4-yloxy)-2-propanol hydrochloride]
- 5-HT release (% of basal levels) measured in dialysates (SON-117 3 mg/kg IP, T30-T1 h): 204.22 % of basal levels and 162.26 % of basal levels and 105.16 % of basal levels and 123.52 % of basal levels and 121.85 % of basal levels and 66.82 % of basal levels and 90.61 % of basal levels and 103.58 % of basal levels
- 5-HT release (% of basal levels) measured in dialysates, MEAN [1]: 172.47 % of basal levels
- 5-HT release (% of basal levels) measured in dialysates [1]: 272.64 % of basal levels and 219.61 % of basal levels and 141.23 % of basal levels and 159.07 % of basal levels and 135.20 % of basal levels and 206.96 % of basal levels and 105.40 % of basal levels and 139.63 % of basal levels
- 5-HT release (% of basal levels) measured in dialysates, MEAN [2]: 139.57 % of basal levels
- 5-HT release (% of basal levels) measured in dialysates [2]: 205.53 % of basal levels and 81.50 % of basal levels and 112.86 % of basal levels and 110.90 % of basal levels and 126.82 % of basal levels and 127.44 % of basal levels and 170.45 % of basal levels and 181.06 % of basal levels
- 5-HT release (% of basal levels) measured in dialysates, MEAN [3]: 134.29 % of basal levels
- 5-HT release (% of basal levels) measured in dialysates [3]: 158.52 % of basal levels and 136.53 % of basal levels and 84.73 % of basal levels and 118.94 % of basal levels and 141.58 % of basal levels and 105.71 % of basal levels and 168.18 % of basal levels and 160.12 % of basal levels
- 5-HT release (% of basal levels) measured in dialysates, MEAN [4]: 134.68 % of basal levels
- 5-HT release (% of basal levels) measured in dialysates [4]: 125.58 % of basal levels and 163.25 % of basal levels and 90.55 % of basal levels and 143.00 % of basal levels and 145.36 % of basal levels and 158.14 % of basal levels and 116.88 % of basal levels
- 5-HT release (% of basal levels) measured in dialysates, MEAN [5]: 122.79 % of basal levels
- 5-HT release (% of basal levels) measured in dialysates [5]: 112.86 % of basal levels and 166.51 % of basal levels and 77.19 % of basal levels and 149.84 % of basal levels and 120.64 % of basal levels and 72.84 % of basal levels and 159.63 % of basal levels
- 5-HT release (% of basal levels) measured in dialysates, MEAN [6]: 131.57 % of basal levels
- 5-HT release (% of basal levels) measured in dialysates [6]: 178.23 % of basal levels and 97.99 % of basal levels and 78.86 % of basal levels and 198.09 % of basal levels and 131.52 % of basal levels and 75.85 % of basal levels and 160.43 % of basal levels
- 5-HT release (% of basal levels) measured in dialysates, MEAN [7]: 263.96 % of basal levels
- 5-HT release (% of basal levels) measured in dialysates [7]: 119.63 % of basal levels and 88.15 % of basal levels and 75.09 % of basal levels and 174.97 % of basal levels and 117.70 % of basal levels and 1179.79 % of basal levels and 92.36 % of basal levels
- 5-HT release (% of basal levels) measured in dialysates, MEAN [8]: 118.76 % of basal levels
- 5-HT release (% of basal levels) measured in dialysates [8]: 40.46 % of basal levels and 171.66 % of basal levels and 76.54 % of basal levels and 186.25 % of basal levels and 112.71 % of basal levels and 98.26 % of basal levels and 145.41 % of basal levels
- 5-HT release (% of basal levels) measured in dialysates, MEAN [9]: 150.50 % of basal levels
- 5-HT release (% of basal levels) measured in dialysates [9]: 121.53 % of basal levels and 146.21 % of basal levels and 238.25 % of basal levels and 159.31 % of basal levels and 72.12 % of basal levels and 135.51 % of basal levels and 180.58 % of basal levels
- 5-HT release (% of basal levels) measured in dialysates, MEAN [10]: 176.38 % of basal levels
- 5-HT release (% of basal levels) measured in dialysates [10]: 118.62 % of basal levels and 189.63 % of basal levels and 161.82 % of basal levels and 191.70 % of basal levels and 132.84 % of basal levels and 100.25 % of basal levels and 410.45 % of basal levels and 105.75 % of basal levels
- 5-HT release (% of basal levels) measured in dialysates, MEAN [11]: 172.13 % of basal levels
- 5-HT release (% of basal levels) measured in dialysates [11]: 146.14 % of basal levels and 156.41 % of basal levels and 213.64 % of basal levels and 136.73 % of basal levels and 298.30 % of basal levels and 107.87 % of basal levels and 145.86 % of basal levels
- 5-HT release (% of basal levels) measured in dialysates, MEAN [12]: 156.40 % of basal levels
- 5-HT release (% of basal levels) measured in dialysates [12]: 135.63 % of basal levels and 218.45 % of basal levels and 123.22 % of basal levels and 169.93 % of basal levels and 132.54 % of basal levels and 87.76 % of basal levels and 130.92 % of basal levels and 252.75 % of basal levels
- 5-HT release (% of basal levels) measured in dialysates, MEAN (SON-117 3 mg/kg IP, T-30 min-T0 (pre-administration)): 97.07 % of basal levels
- 5-HT release (% of basal levels) measured in dialysates, MEAN [13]: 101.16 % of basal levels
- 5-HT release (% of basal levels) measured in dialysates [13]: 104.98 % of basal levels and 84.68 % of basal levels and 89.82 % of basal levels
- 5-HT release (% of basal levels) measured in dialysates, MEAN (SON-117 3 mg/kg IP, T-1 h-T-30 min (pre-administration)): 102.92 % of basal levels
- 5-HT concentrations in prefrontal cortex, significant increase, max. (SON-117 3 mg/kg IP, from 2 h to 3 h): 175%
- 5-HT concentrations in prefrontal cortex, significant increase (SON-117 3 mg/kg IP, from 5.5 h to 7 h): 272%
- 5-HT release, increase still present (SON-117 3 mg/kg, 7 h after administration): 183%
- levels of 5-HT compared to the citalopram treated group (significant) (SON-117 3 mg/kg, at 1 h): slightly lower
- 5-HT release, maximum increase observed (SON-117 3 mg/kg, at 5 h): 272%
- levels of 5-HT compared to the citalopram treated group (significant) (SON-117 3 mg/kg, at 5 h and 7 h): higher
- 5-HT (% of respective basal) MEAN (T0-T30 min): 128.89 % of respective basal
- 5-HT (% of respective basal) MEAN (T30-T1 h): 123.42 % of respective basal
- 5-HT (% of respective basal) MEAN (T1 h 30-T2 h): 167.52 % of respective basal
- 5-HT (% of respective basal) MEAN (T1 h-T1 h 30): 176.03 % of respective basal
- 5-HT (% of respective basal) MEAN (T2 h 30-T3 h): 215.80 % of respective basal
- 5-HT (% of respective basal) MEAN (T2 h-T2 h 30): 370.70 % of respective basal
- 5-HT (% of respective basal) MEAN (T3 h 30-T4 h): 151.83 % of respective basal
- 5-HT (% of respective basal) MEAN (T3 h-T3 h 30): 156.53 % of respective basal
- 5-HT (% of respective basal) MEAN (T4 h 30-T5 h): 296.70 % of respective basal
- 5-HT (% of respective basal) MEAN (T4 h-T4 h 30): 350.16 % of respective basal
- 5-HT (% of respective basal) MEAN (T5 h 30-T6 h): 250.07 % of respective basal
- 5-HT (% of respective basal) MEAN (T5 h-T5 h 30): 310.25 % of respective basal
- 5-HT (% of respective basal) MEAN (T6 h 30-T7 h): 253.10 % of respective basal
- 5-HT (% of respective basal) MEAN (T6 h-T6 h 30): 254.62 % of respective basal
- 5-HT (% of respective basal) MEAN (T-30 min-T0 (before administration)): 112.68 % of respective basal
- 5-HT (% of respective basal) MEAN (T-1 h 30-T-1 h (before administration)): 80.63 % of respective basal
- 5-HT (% of respective basal) MEAN (T-1 h-T-30 min (before administration)): 106.27 % of respective basal
